Reference: patent EP2951180B1, “2,6,7,8 SUBSTITUTED PURINES AS HDM2 INHIBITORS” (Merck Sharp & Dohme Corp., priority 2013, dated 2014)

Each compound was assayed against T1, HDM2 (Homo sapiens, UniProt Q00987) (assay: HDM2 FRET assay (inhibition of binding of FITC labeled p53-pocket peptide to HDM2)). Settings: Table 7; read-out: FRET IC50.
T1 construct: Thioredoxin (N); made in house; host or cells: E. coli strain BL21(DE3)Rosetta
T1 sequence (Q00987 17-125): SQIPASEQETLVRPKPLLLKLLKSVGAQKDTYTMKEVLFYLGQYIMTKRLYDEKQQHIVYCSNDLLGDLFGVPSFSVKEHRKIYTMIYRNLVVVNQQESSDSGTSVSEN
How it was run: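 TR-FRET with 0.5 nM His-tagged recombinant HDM2, 3 nM FITC-labelled p53 peptide and 0.25 nM Tb-anti-His antibody in PBS, 0.01% BSA, 0.01% Tween-20, 0.1% DMSO. IC50 from em520/em495 ratio over 10-point dilutions, 4-parameter logistic fit.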
In the case of `Cc1cccc(-c2nc3nc(C(=O)O)nc(N[C@H](CCCO)C4CCC4)c3n2Cc2ccc(Cl)cc2)c1` [Example 7.1, 7-(4-chlorobenzyl)-6-{[(1R)-1-cyclobutyl-4-hydroxybutyl]amino}-8-(3-methylphenyl)-7H-purine-2-carboxylic acid], the IC50 is reported as 105 nM.
`Cc1cccc(-c2nc3nc(C(=O)O)nc(N[C@H](CCCO)C4CCC4)c3n2Cc2ccc(C(F)(F)F)cc2)c1` [Example 7.2, 6-{[(1R)-1-cyclobutyl-4-hydroxybutyl]amino}-8-(3-methylphenyl)-7-[4-(trifluoromethyl)benzyl]-7H-purine-2-carboxylic acid] showed an IC50 of 41 nM.
For `Cc1cccc(-c2nc3ncnc(N[C@H](CCCO)C4CCC4)c3n2Cc2ccc(C(F)(F)F)cc2)c1` [Example 7.3, (4R)-4-cyclobutyl-4-({8-(3-methylphenyl)-7-[4-(trifluoromethyl)benzyl]-7H-purin-6-yl}amino)butan-1-ol], the IC50 was 3240 nM.
For `CCC[C@@H](Nc1nc(C(=O)O)nc2nc(-c3cccc(C)c3)n(Cc3ccc(C(F)(F)F)cc3)c12)C1CCC1` [Example 7.5, 6-{[(1R)-1-cyclobutylbutyl]amino}-8-(3-methylphenyl)-7-[4-(trifluoromethyl)benzyl]-7H-purine-2-carboxylic acid], the IC50 was 142 nM.
With `Cc1cccc(-c2nc3nc(C(=O)O)nc(N[C@H](CCC(=O)NCCO)C4CCC4)c3n2Cc2ccc(C(F)(F)F)cc2)c1` [Example 7.7, 6-({(1R)-1-cyclobutyl-4-[(2-hydroxyethyl)amino]-4-oxobutyl}amino)-8-(3-methylphenyl)-7-[4-(trifluoromethyl)benzyl]-7H-purine-2-carboxylic acid] the IC50 was 832 nM.
`Cc1cccc(-c2nc3nc(C(=O)O)nc(N4CCC[C@@H]4C4CCC4)c3n2Cc2ccc(C(F)(F)F)cc2)c1` [Example 7.8, 6-[(2R)-2-cyclobutylpyrrolidin-1-yl]-8-(3-methylphenyl)-7-[4-(trifluoromethyl)benzyl]-7H-purine-2-carboxylic acid] showed an IC50 of 188 nM.
`Cc1cccc(-c2nc3ncnc(N4CCC[C@@H]4C4CCC4)c3n2Cc2ccc(C(F)(F)F)cc2)c1` [Example 7.9, 6-[(2R)-2-cyclobutylpyrrolidin-1-yl]-8-(3-methylphenyl)-7-[4-(trifluoromethyl)benzyl]-7H-purine] gave an IC50 of 4480 nM.
`Cc1cccc(-c2nc3nc(C(=O)O)nc(N[C@H](CCCN4CCN(C)CC4)C4CCC4)c3n2Cc2ccc(C(F)(F)F)cc2)c1` [Example 7.10, 6-{[(1R)-1-cyclobutyl-4-(4-methylpiperazin-1-yl)butyl]amino}-8-(3-methylphenyl)-7-[4-(trifluoromethyl)benzyl]-7H-purine-2-carboxylic acid] gave an IC50 of 94.3 nM.
Compound `Cc1cccc(-c2nc3nc(C(=O)O)nc(N[C@H](CCCN(C)C)C4CCC4)c3n2Cc2ccc(C(F)(F)F)cc2)c1` [Example 7.11, 6-{[(1R)-1-cyclobutyl-4-(dimethylamino)butyl]amino}-8-(3-methylphenyl)-7-[4-(trifluoromethyl)benzyl]-7H-purine-2-carboxylic acid] has an IC50 of 323 nM.
Work on `Cc1cccc(-c2nc3nc(C(=O)O)nc(N[C@H](CCC(N)=O)C4CCC4)c3n2Cc2ccc(C(F)(F)F)cc2)c1` [Example 7.12, 6-{[(1R)-4-amino-1-cyclobutyl-4-oxobutyl]amino}-8-(3-methylphenyl)-7-[4-(trifluoromethyl)benzyl]-7H-purine-2-carboxylic acid] yielded an IC50 of 55.3 nM.
`CNC(=O)CC[C@@H](Nc1nc(C(=O)O)nc2nc(-c3cccc(C)c3)n(Cc3ccc(C(F)(F)F)cc3)c12)C1CCC1` [Example 7.13, 6-{[(1R)-1-cyclobutyl-4-(methylamino)-4-oxobutyl]amino}-8-(3-methylphenyl)-7-[4-(trifluoromethyl)benzyl]-7H-purine-2-carboxylic acid] showed an IC50 of 102 nM.
In the case of `Cc1cccc(-c2nc3nc(C(=O)O)nc(N[C@H](CC(O)CO)C4CCC4)c3n2Cc2ccc(C(F)(F)F)cc2)c1` (stereo partly drawn) [Example 7.15, 6-{[(1R)-1-cyclobutyl-3,4-dihydroxybutyl]amino}-8-(3-methylphenyl)-7-[4-(trifluoromethyl)benzyl]-7H-purine-2-carboxylic acid], the IC50 is reported as 26.5 nM.
`CC(C)c1ccnc(-c2nc3nc(C(=O)O)nc(N[C@H](c4ccccc4)C4CCC4)c3n2Cc2ccc(C(F)(F)F)cc2)c1` [Example 7.16, 6-{[(S)-cyclobutyl(phenyl)methyl]amino}-8-[4-(1-methylethyl)pyridin-2-yl]-7-[4-(trifluoromethyl)benzyl]-7H-purine-2-carboxylic acid] gave an IC50 of 40.6 nM.
For `COc1ccc(C)cc1-c1nc2nc(C(=O)O)nc(N[C@H](C)C3CC(F)(F)C3)c2n1Cc1ccc(C(F)(F)F)cc1` [Example 7.17, 6-{[(1R)-1-(3,3-difluorocyclobutyl)ethyl]amino}-8-(2-methoxy-5-methylphenyl)-7-[4-(trifluoromethyl)benzyl]-7H-purine-2-carboxylic acid], the IC50 was 58.9 nM.
`COc1ccc(C)cc1-c1nc2nc(C(=O)O)nc(NC(C)C3CC(C)C3)c2n1Cc1ccc(C(F)(F)F)cc1` (stereo not shown) [Example 7.18, 8-(2-methoxy-5-methylphenyl)-6-{[1-(3-methylcyclobutyl)ethyl]amino}-7-[4-(trifluoromethyl)benzyl]-7H-purine-2-carboxylic acid] was tested, and the IC50 was 162 nM.
With `COc1ccc(C)cc1-c1nc2nc(C(=O)O)nc(N[C@H](C)C3CC3(F)F)c2n1Cc1ccc(C(F)(F)F)cc1` (stereo partly drawn) [Example 7.19, 6-{[(1R)-1-(2,2-difluorocyclopropyl)ethyl]amino}-8-(2-methoxy-5-methylphenyl)-7-[4-(trifluoromethyl)benzyl]-7H-purine-2-carboxylic acid] the IC50 was 772 nM.

Same assay, conditions: Table 8; read-out: FRET IC50
`CC(C)c1ccnc(-c2nc3nc(C(=O)O)nc(N[C@H](C)C4CCC4)c3n2Cc2ccc(C(F)(F)F)cc2N)c1` [Example 8.1, 7-[2-amino-4-(trifluoromethyl)benzyl]-6-{[(1R)-1-cyclobutylethyl]amino}-8-[4-(propan-2-yl)pyridin-2-yl]-7H-purine-2-carboxylic acid] was tested, and the IC50 was 1.62 nM.

Same assay, conditions: Table 9; read-out: FRET IC50
For `C[C@H](Nc1nc2nc(C(=O)O)nc(N[C@H](C)C3CCC3)c2n1Cc1ccc(C(F)(F)F)cc1)c1ccc(F)cc1` [Example 9.1, 6-{[(1R)-1-cyclobutylethyl]amino}-8-{[(1S)-1-(4-fluorophenyl)ethyl]amino}-7-[4-(trifluoromethyl)benzyl]-7H-purine-2-carboxylic acid], the IC50 was 1.81 nM.
Work on `C[C@@H](Nc1nc(C(=O)O)nc2nc(N(C)c3ccccc3)n(Cc3ccc(C(F)(F)F)cc3)c12)C1CCC1` [Example 9.2, 6-{[(1R)-1-cyclobutylethyl]amino}-8-[methyl(phenyl)amino]-7-[4-(trifluoromethyl)benzyl]-7H-purine-2-carboxylic acid] yielded an IC50 of 20.7 nM.
For `C[C@@H](Nc1nc(C(=O)O)nc2nc(N3CCCCC3Cc3ccccc3)n(Cc3ccc(C(F)(F)F)cc3)c12)C1CCC1` (stereo partly drawn) [Example 9.3, 8-(2-benzylpiperidin-1-yl)-6-{[(1R)-1-cyclobutylethyl]amino}-7-[4-(trifluoromethyl)benzyl]-7H-purine-2-carboxylic acid], the IC50 was 14.5 nM.
`C[C@@H](Nc1nc(-c2noc(=O)[nH]2)nc2nc(N3CCOC[C@H]3c3ccccc3)n(Cc3ccc(Cl)c(F)c3)c12)C1CCC1` [Example 9.4, 3-{7-(4-chloro-3-fluorobenzyl)-6-{[(1R)-1-cyclobutylethyl]amino}-8-[(3R)-3-phenylmorpholin-4-yl]-7H-purin-2-yl}-1,2,4-oxadiazol-5(4H)-one] was tested, and the IC50 was 0.848 nM.
`C[C@@H](Nc1nc(C(=O)O)nc2nc(N3CCN(C)CC3)n(Cc3ccc(C(F)(F)F)cc3)c12)C1CC1` [Example 9.5, 6-{[(1R)-1-cyclopropylethyl]amino}-8-(4-methylpiperazin-1-yl)-7-[4-(trifluoromethyl)benzyl]-7H-purine-2-carboxylic acid] gave an IC50 of 2350 nM.
Work on `C[C@@H](Nc1nc(C(=O)O)nc2nc(N[C@@H](CO)c3ccccc3)n(Cc3ccc(C(F)(F)F)cc3)c12)C1CCC1` [Example 9.6, 6-{[(1R)-1-cyclobutylethyl]amino}-8-{[(1R)-2-hydroxy-1-phenylethyl]amino}-7-[4-(trifluoromethyl)benzyl]-7H-purine-2-carboxylic acid] yielded an IC50 of 1.47 nM.
`C[C@H](CO)Nc1nc2nc(C(=O)O)nc(N[C@H](C)C3CCC3)c2n1Cc1ccc(C(F)(F)F)cc1` [Example 9.7, 6-{[(1R)-1-cyclobutylethyl]amino}-8-{[(1R)-2-hydroxy-1-methylethyl]amino}-7-[4-(trifluoromethyl)benzyl]-7H-purine-2-carboxylic acid] gave an IC50 of 35.8 nM.
Compound `C[C@@H](Nc1nc(C(=O)O)nc2nc(N[C@H](CO)c3ccccc3)n(Cc3ccc(C(F)(F)F)cc3)c12)C1CCC1` [Example 9.8, 6-{[(1R)-1-cyclobutylethyl]amino}-8-{[(1S)-2-hydroxy-1-phenylethyl]amino}-7-[4-(trifluoromethyl)benzyl]-7H-purine-2-carboxylic acid] has an IC50 of 15.2 nM.
`C[C@@H](Nc1nc(C(=O)O)nc2nc(N3CCOCC3)n(Cc3ccc(Cl)cc3)c12)C1CC1` [Example 9.9, 7-(4-chlorobenzyl)-6-{[(1R)-1-cyclopropylethyl]amino}-8-morpholin-4-yl-7H-purine-2-carboxylic acid] gave an IC50 of 574 nM.
With `C[C@@H](CO)Nc1nc2nc(C(=O)O)nc(N[C@H](C)C3CCC3)c2n1Cc1ccc(C(F)(F)F)cc1` [Example 9.10, 6-{[(1R)-1-cyclobutylethyl]amino}-8-{[(1S)-2-hydroxy-1-methylethyl]amino}-7-[4-(trifluoromethyl)benzyl]-7H-purine-2-carboxylic acid] the IC50 was 85.9 nM.
Work on `C[C@@H](Nc1nc(C(=O)O)nc2nc(N3CCCCC3)n(Cc3ccc(C(F)(F)F)cc3)c12)C1CCC1` [Example 9.11, 6-{[(1R)-1-cyclobutylethyl]amino}-8-piperidin-1-yl-7-[4-(trifluoromethyl)benzyl]-7H-purine-2-carboxylic acid] yielded an IC50 of 17.6 nM.
